Earlier results on one compound are cited in patent publication US20200396998A1, “HERBICIDAL COMBINATIONS” (UPL LTD, priority 2017, published 2020).

The subject of the data set is broadleaf weed. To be noted: saflufenacil alone; early season broadleaf weed control.

As to `CC(C)N(C)S(=O)(=O)NC(=O)c1cc(-n2c(=O)cc(C(F)(F)F)n(C)c2=O)c(F)cc1Cl` [Saflufenacil, N′{2-chloro-4-fluoro-5-[1,2,3,6-tetrahydro-3-methyl-2,6-dioxo-4-(trifluoromethyl)pyrimidin-1-yl]benzoyl}-N-isopropyl-N-methylsulfamide], the “Weed control efficacy over time, in words” value was “reduced beyond 30 days after treatment”.
